Experimental data reported in patent US20180024136A1, “Development of ABCG2-Sensitive Fluorescent Probe For Isolation of ABCG2low Neural Stem/Progenitor Cells” (National University of Singapore, priority 2015, published 2018).

Experiment: Spectroscopic properties of CF library (absorbance, emission, quantum yield, extinction coefficient)
Type: physicochemical
Conditions: 100 μM in ethanol; for QY (Φ): reference fluorescein
Method: All the chemicals and solvents were purchased from Sigma Aldrich, Alfa Aesar, Fluka, MERCK, Tocris or Acros, and used without further purification. Normal phase purifications were carried out using Merck Silica Gel 60 (particle size: 0.040-0.063 mm, 230-400 mesh). Analytical characterization was performed on a HPLC-MS (Agilent-1200 series) with a DAD detector and a single quadrupole mass spectrometer (6130 series) with an ESI probe. ^1H-NMR and ^13C-NMR spectra were recorded on Bruker Avance 300 MHz NMR spectrometers, and chemical shifts are expressed in parts per million (ppm) and coupling constants are reported as a J value in Hertz (Hz). High resolution mass spectrometry (HRMS) data was recorded on a Micro mass VG 7035 (Mass Spectrometry Laboratory at National University of Singapore (NUS)). Spectroscopic and quantum yield data were measured on spectroscopic measurements, performed on a fluorometer and UV/VIS instrument, Synergy 4 of Bioteck Company. The slit width was 1 nm for both excitation and emission, and the data analysis was performed using GraphPrism 5.0.

For `COc1cccc(CNC(=O)c2ccc(-c3c4cc(Cl)c(=O)cc-4oc4cc(O)c(Cl)cc34)cc2)c1` [CF-C4], the “Abs (nm)” value was 520 nm, the “Em (nm)” value was 559 nm and the “QY (Φ)” value was 0.55.
For `CC(Cc1ccccc1)NC(=O)c1ccc(-c2c3cc(Cl)c(=O)cc-3oc3cc(O)c(Cl)cc23)cc1` (stereo not drawn) [CF-A6], the “Abs (nm)” value was 520 nm, the “Em (nm)” value was 557 nm and the “QY (Φ)” value was 0.43.
In the case of `CCOCCCNC(=O)c1ccc(-c2c3cc(Cl)c(=O)cc-3oc3cc(O)c(Cl)cc23)cc1` [CF-E4], the “Abs (nm)” value is reported as 520 nm, the “Em (nm)” value is reported as 558 nm and the “QY (Φ)” value is reported as 0.47.
With `CCCN(CC1CC1)C(=O)c1ccc(-c2c3cc(Cl)c(=O)cc-3oc3cc(O)c(Cl)cc23)cc1` [CF-C6] the “Abs (nm)” value was 520 nm, the “Em (nm)” value was 554 nm and the “QY (Φ)” value was 0.58.
For `COc1ccccc1CCNC(=O)c1ccc(-c2c3cc(Cl)c(=O)cc-3oc3cc(O)c(Cl)cc23)cc1` [CF-F8], the “Abs (nm)” value was 520 nm, the “Em (nm)” value was 559 nm and the “QY (Φ)” value was 0.34.
In the case of `COCCNC(=O)c1ccc(-c2c3cc(Cl)c(=O)cc-3oc3cc(O)c(Cl)cc23)cc1` [CF-B3], the “Abs (nm)” value is reported as 520 nm, the “Em (nm)” value is reported as 557 nm and the “QY (Φ)” value is reported as 0.32.
For `O=C(NCCc1ccccc1-c1ccccc1)c1ccc(-c2c3cc(Cl)c(=O)cc-3oc3cc(O)c(Cl)cc23)cc1` [CF-H9], the “Abs (nm)” value was 520 nm, the “Em (nm)” value was 558 nm and the “QY (Φ)” value was 0.30.
For `CN(CCc1ccccc1)C(=O)c1ccc(-c2c3cc(Cl)c(=O)cc-3oc3cc(O)c(Cl)cc23)cc1` [CF-D4], the “Abs (nm)” value was 520 nm, the “Em (nm)” value was 555 nm and the “QY (Φ)” value was 0.69.
In the case of `Cc1cccc(CN(C)C(=O)c2ccc(-c3c4cc(Cl)c(=O)cc-4oc4cc(O)c(Cl)cc34)cc2)c1` [CF-D7], the “Abs (nm)” value is reported as 520 nm, the “Em (nm)” value is reported as 555 nm and the “QY (Φ)” value is reported as 0.54.
In the case of `COc1ccc(CCNC(=O)c2ccc(-c3c4cc(Cl)c(=O)cc-4oc4cc(O)c(Cl)cc34)cc2)cc1OC` [CF-B10], the “Abs (nm)” value is reported as 520 nm, the “Em (nm)” value is reported as 559 nm and the “QY (Φ)” value is reported as 0.56.
For `CCCCCCCCNC(=O)c1ccc(-c2c3cc(Cl)c(=O)cc-3oc3cc(O)c(Cl)cc23)cc1` [CF-C3], the “Abs (nm)” value was 520 nm, the “Em (nm)” value was 559 nm and the “QY (Φ)” value was 0.37.
With `CCCCNC(=O)c1ccc(-c2c3cc(Cl)c(=O)cc-3oc3cc(O)c(Cl)cc23)cc1` [CF-G7] the “Abs (nm)” value was 520 nm, the “Em (nm)” value was 559 nm and the “QY (Φ)” value was 0.41.
In the case of `CCC(C)NC(=O)c1ccc(-c2c3cc(Cl)c(=O)cc-3oc3cc(O)c(Cl)cc23)cc1` (stereo not drawn) [CF-G8], the “Abs (nm)” value is reported as 520 nm, the “Em (nm)” value is reported as 556 nm and the “QY (Φ)” value is reported as 0.29.
With `O=C(NC1Cc2ccccc2C1)c1ccc(-c2c3cc(Cl)c(=O)cc-3oc3cc(O)c(Cl)cc23)cc1` [CF-D8] the “Abs (nm)” value was 520 nm, the “Em (nm)” value was 558 nm and the “QY (Φ)” value was 0.47.
With `CCC(C)(C)NC(=O)c1ccc(-c2c3cc(Cl)c(=O)cc-3oc3cc(O)c(Cl)cc23)cc1` [CF-G11] the “Abs (nm)” value was 520 nm, the “Em (nm)” value was 557 nm and the “QY (Φ)” value was 0.35.
For `O=C(NCC1CCCCC1)c1ccc(-c2c3cc(Cl)c(=O)cc-3oc3cc(O)c(Cl)cc23)cc1` [CF-G9], the “Abs (nm)” value was 520 nm, the “Em (nm)” value was 557 nm and the “QY (Φ)” value was 0.27.
For `CCCCCCN(C)C(=O)c1ccc(-c2c3cc(Cl)c(=O)cc-3oc3cc(O)c(Cl)cc23)cc1` [CF-F10], the “Abs (nm)” value was 520 nm, the “Em (nm)” value was 559 nm and the “QY (Φ)” value was 0.35.
For `CC(C)C(C)NC(=O)c1ccc(-c2c3cc(Cl)c(=O)cc-3oc3cc(O)c(Cl)cc23)cc1` (stereo not drawn) [CF-E6], the “Abs (nm)” value was 520 nm, the “Em (nm)” value was 557 nm and the “QY (Φ)” value was 0.29.
For `CCCCCCCCCCCCN(C)C(=O)c1ccc(-c2c3cc(Cl)c(=O)cc-3oc3cc(O)c(Cl)cc23)cc1` [CF-G2], the “Abs (nm)” value was 520 nm, the “Em (nm)” value was 553 nm and the “QY (Φ)” value was 0.85.
For `CCCNC(=O)c1ccc(-c2c3cc(Cl)c(=O)cc-3oc3cc(O)c(Cl)cc23)cc1` [CF-D9], the “Abs (nm)” value was 520 nm, the “Em (nm)” value was 558 nm and the “QY (Φ)” value was 0.25.
With `Cc1ccc(CCNC(=O)c2ccc(-c3c4cc(Cl)c(=O)cc-4oc4cc(O)c(Cl)cc34)cc2)cc1` [CF-C10] the “Abs (nm)” value was 520 nm, the “Em (nm)” value was 558 nm and the “QY (Φ)” value was 0.54.
For `CCCCCCCCCCCCCCNC(=O)c1ccc(-c2c3cc(Cl)c(=O)cc-3oc3cc(O)c(Cl)cc23)cc1` [CF-A2], the “Abs (nm)” value was 520 nm, the “Em (nm)” value was 558 nm and the “QY (Φ)” value was 0.42.
For `O=C(NC1CCCCC1)c1ccc(-c2c3cc(Cl)c(=O)cc-3oc3cc(O)c(Cl)cc23)cc1` [CF-A9], the “Abs (nm)” value was 520 nm, the “Em (nm)” value was 557 nm and the “QY (Φ)” value was 0.63.
For `CCN(Cc1ccccc1)C(=O)c1ccc(-c2c3cc(Cl)c(=O)cc-3oc3cc(O)c(Cl)cc23)cc1` [CF-D5], the “Abs (nm)” value was 520 nm, the “Em (nm)” value was 555 nm and the “QY (Φ)” value was 0.66.
For `COCCN(CCOC)C(=O)c1ccc(-c2c3cc(Cl)c(=O)cc-3oc3cc(O)c(Cl)cc23)cc1` [CF-H3], the “Abs (nm)” value was 520 nm, the “Em (nm)” value was 553 nm and the “QY (Φ)” value was 0.82.
With `CC1CCCCN1C(=O)c1ccc(-c2c3cc(Cl)c(=O)cc-3oc3cc(O)c(Cl)cc23)cc1` (stereo not drawn) [CF-H6] the “Abs (nm)” value was 520 nm, the “Em (nm)” value was 553 nm and the “QY (Φ)” value was 0.65.
With `CC(C)CCNC(=O)c1ccc(-c2c3cc(Cl)c(=O)cc-3oc3cc(O)c(Cl)cc23)cc1` [CF-C8] the “Abs (nm)” value was 520 nm, the “Em (nm)” value was 558 nm and the “QY (Φ)” value was 0.68.
For `CCCCCCCCCCCCCCCCCCNC(=O)c1ccc(-c2c3cc(Cl)c(=O)cc-3oc3cc(O)c(Cl)cc23)cc1` [CF-D6], the “Abs (nm)” value was 520 nm, the “Em (nm)” value was 555 nm and the “QY (Φ)” value was 0.32.
In the case of `COc1ccc(CCNC(=O)c2ccc(-c3c4cc(Cl)c(=O)cc-4oc4cc(O)c(Cl)cc34)cc2)cc1` [CF-C5], the “Abs (nm)” value is reported as 520 nm, the “Em (nm)” value is reported as 558 nm and the “QY (Φ)” value is reported as 0.63.
In the case of `CC(C)NC(=O)c1ccc(-c2c3cc(Cl)c(=O)cc-3oc3cc(O)c(Cl)cc23)cc1` [CF-B8], the “Abs (nm)” value is reported as 520 nm, the “Em (nm)” value is reported as 559 nm and the “QY (Φ)” value is reported as 0.57.
In the case of `CC(C)OCCCNC(=O)c1ccc(-c2c3cc(Cl)c(=O)cc-3oc3cc(O)c(Cl)cc23)cc1` [CF-F9], the “Abs (nm)” value is reported as 520 nm, the “Em (nm)” value is reported as 557 nm and the “QY (Φ)” value is reported as 0.34.
For `O=C(NCCCCc1ccccc1)c1ccc(-c2c3cc(Cl)c(=O)cc-3oc3cc(O)c(Cl)cc23)cc1` [CF-D11], the “Abs (nm)” value was 520 nm, the “Em (nm)” value was 558 nm and the “QY (Φ)” value was 0.44.
For `O=C(CCCCc1ccccc1)c1ccc(-c2c3cc(Cl)c(=O)cc-3oc3cc(O)c(Cl)cc23)cc1` [CF-G4], the “Abs (nm)” value was 520 nm, the “Em (nm)” value was 556 nm and the “QY (Φ)” value was 0.40.
In the case of `O=C(NC1CCCCCC1)c1ccc(-c2c3cc(Cl)c(=O)cc-3oc3cc(O)c(Cl)cc23)cc1` [CF-C9], the “Abs (nm)” value is reported as 520 nm, the “Em (nm)” value is reported as 558 nm and the “QY (Φ)” value is reported as 0.50.
In the case of `O=C(NCc1c(Cl)cccc1Cl)c1ccc(-c2c3cc(Cl)c(=O)cc-3oc3cc(O)c(Cl)cc23)cc1` [CF-E2], the “Abs (nm)” value is reported as 520 nm, the “Em (nm)” value is reported as 557 nm and the “QY (Φ)” value is reported as 0.63.
In the case of `CC(C)CC(C)NC(=O)c1ccc(-c2c3cc(Cl)c(=O)cc-3oc3cc(O)c(Cl)cc23)cc1` (stereo not drawn) [CF-H10], the “Abs (nm)” value is reported as 520 nm, the “Em (nm)” value is reported as 557 nm and the “QY (Φ)” value is reported as 0.38.
For `CCOC(=O)N1CCC(NC(=O)c2ccc(-c3c4cc(Cl)c(=O)cc-4oc4cc(O)c(Cl)cc34)cc2)CC1` [CF-G6], the “Abs (nm)” value was 520 nm, the “Em (nm)” value was 556 nm and the “QY (Φ)” value was 0.29.
In the case of `CCCN(CCC)C(=O)c1ccc(-c2c3cc(Cl)c(=O)cc-3oc3cc(O)c(Cl)cc23)cc1` [CF-A11], the “Abs (nm)” value is reported as 520 nm, the “Em (nm)” value is reported as 558 nm and the “QY (Φ)” value is reported as 0.36.
In the case of `O=C(NCCc1ccccc1F)c1ccc(-c2c3cc(Cl)c(=O)cc-3oc3cc(O)c(Cl)cc23)cc1` [CF-H7], the “Abs (nm)” value is reported as 520 nm, the “Em (nm)” value is reported as 557 nm and the “QY (Φ)” value is reported as 0.59.
With `CCCCCNC(=O)c1ccc(-c2c3cc(Cl)c(=O)cc-3oc3cc(O)c(Cl)cc23)cc1` [CF-G10] the “Abs (nm)” value was 520 nm, the “Em (nm)” value was 558 nm and the “QY (Φ)” value was 0.23.
